Assay results: patent US9925179B2, “Combination therapy for mental disorders” (priority 2014, dated 2018)
Where “and” joins values, the source holds several entries; their conditions need not be identical. Equal values may be shown once.

What was measured:
[1] = Metabolic profiles (cholesterol, HDL-C, LDL-C, triglyceride, glucose) in 12-week add-on trial; assay type: in vivo, human; details: for Within group change (baseline minus endpoint) Glucose, Mean ± SD / Within group change (baseline minus endpoint) HDL-C, Mean ± SD / Within group change (baseline minus endpoint) LDL-C, Mean ± SD / Within group change (baseline minus endpoint) Total cholesterol, Mean ± SD / Within group change (baseline minus endpoint) Triglyceride, Mean ± SD: BP-II patients, add-on to valproic acid, 12-week follow-up; for Glucose, difference versus placebo, B (standardized coefficient) / HDL-C, difference versus placebo, B (standardized coefficient) / LDL-C, difference versus placebo, B (standardized coefficient) / Total Cholesterol, difference versus placebo, B (standardized coefficient) / Triglyceride, difference versus placebo, B (standardized coefficient): GEE interaction term, placebo as reference, controlling for age, gender, treatment duration, HDRS and YMRS
Description: (§1) 250˜300 male and female BP-II patients (18˜65 years old) were recruited, from the Department of Psychiatry at National Cheng Kung University Hospital and Tri-Service General Hospital into a 12-week treatment. The research protocol was examined for approval by the Institutional Review Board for the Protection of Human Subjects at National Cheng Kung University Hospital and Tri-Service General Hospital. All participants were given a complete description of the study and were asked to sign an informed consent before the study began. Patients who had major, mental illnesses other than BP-II and who had taken memantine or DM within 1 week before the first dose of the double-blind medication were excluded. The Chinese Version of Modified Schedule of Affective Disorder and Schizophrenia-Life Time (SADS-L) will be conducted for confirmation of the diagnosis. […] After each patient had been diagnosed based on DSM-IV criteria by a senior psychiatrist and confirmed by a clinical psychologist using a structured interview, SADS-L, the severity of each patient's clinical symptoms was assessed using the 17-item Hamilton Rating Scale for Depression (HRSD) and the Young Mania Rating Scale (YMRS). All the patients at Screen who score 18 on the HRSD or 14 on the YMRS were recruited. Eligible patients were randomly assigned into four treatment groups (n=40-45 for each group) in a double-blind manner and all groups matched in demographic characteristics, symptom severity, while they received open-label valproic acid (VPA) treatment (500 mg and 1000 mg daily [[…] in plasma]): 1) DM (30 mg/day), 2) memantine (5 mg/day), 3) combination of DM and memantine (30 mg/day DM and 5 mg/day memantine), and 4) placebo respectively for 12 weeks. Patients were randomized into 4 groups through a computer-generated randomization table to receive placebo or any of active treatments in a 1:1:1:1 ratio. The patients with side-effect intolerance or clinical worsening were withdrawn earlier.
Symptom severity, immunological parameters (plasma tumor necrosis factor α (TNF-α) and C-reactive protein (CRP)) and plasma brain derived neurotrophic factor (BDNF) were examined regularly. Metabolic profiles (cholesterol, triglyceride, HbA1C, fasting serum glucose, body mass index [BMI]) were measured at baseline and 2, 8, and 12 weeks. Concomitant benzodiazepine medication (lorazepam <8 mg) was used for nighttime sedation, and to treat agitation and insomnia during the study. Up to 20 mg/daily of fluoxetine was permitted for associated depressive symptoms.
(§2) The intent to-treat (ITT) analysis set included all randomized patients who received at least one dose of study drug, and had one baseline assessment and at least one after baseline. All the outcome variables were analyzed in the ITT set, including HDRS, YMRS, cytokine levels, plasma BDNF levels and metabolic parameters; missing data was filled in using the last observation carried forward (LOCF) method.
(§3) The overall within-group changes of each outcome over the 12 weeks were analyzed by paired sample t-test. To compare the difference in outcomes of add-on medication (DM30, MM5, and DM30+MM5) versus placebo, generalized estimating equation (GEE) was adopted. A total of 10 models ran with each outcome as a dependent variable. In each model, add-on medication received (DM30, MM5, and DM30+MM5 vs. controls), treatment duration, treatment received X treatment duration, gender, and age were included as independent variables. The covariance structure employed was autoregressive (AR(1)) model. The placebo group was used as reference group. The interaction term of treatment received X treatment duration was regarded as effect of add-on DM30, MM5, and DM30+MM5. To analyze correlations between cytokines, BDNF and metabolic profiles, GEE analysis was used as well. […]

BP-II patients [2] = assay: Side effects / discontinuation in 12-week add-on trial; assay type: in vivo, human; details: 12-week trial, n=66 in group
Description: 250˜300 male and female BP-II patients (18˜65 years old) were recruited, from the Department of Psychiatry at National Cheng Kung University Hospital and Tri-Service General Hospital into a 12-week treatment. The research protocol was examined for approval by the Institutional Review Board for the Protection of Human Subjects at National Cheng Kung University Hospital and Tri-Service General Hospital. All participants were given a complete description of the study and were asked to sign an informed consent before the study began. Patients who had major, mental illnesses other than BP-II and who had taken memantine or DM within 1 week before the first dose of the double-blind medication were excluded. […] After each patient had been diagnosed based on DSM-IV criteria by a senior psychiatrist and confirmed by a clinical psychologist using a structured interview, SADS-L, the severity of each patient's clinical symptoms was assessed using the 17-item Hamilton Rating Scale for Depression (HRSD) and the Young Mania Rating Scale (YMRS). […]
The severity of side effects was evaluated by using the Chinese version of Side-Effects Checklist which derived from Psychiatric Rating and Diagnostic Instruments (TRIMS, 1972) and included 7 categories as follows: 1) Mental Status; 2) Genito-Urinary; 3) Cardiovascular; 4) Head-Neck; 5) Extremities; 6) Skin; 7) Gastrointestinal. […]

BP-II patients [3] = assay: Symptom severity (HDRS, YMRS) in 12-week randomized double-blind placebo-controlled add-on trial; assay type: in vivo, human; details: for Within group change (baseline minus endpoint) HDRS, Mean ± SD / Within group change (baseline minus endpoint) YMRS, Mean ± SD: BP-II patients, add-on to valproic acid, 12-week follow-up; for HDRS, difference versus placebo, B (standardized coefficient) / YMRS, difference versus placebo, B (standardized coefficient): GEE, treatment group x treatment duration interaction, placebo as reference, controlling for age, gender, treatment duration
Description: as §1
Efficacy will be assessed by the YMRS, HDRS and Side-Effects.
Clinical ratings were performed by research psychiatric professionals who were well-trained and experienced in the rating scales. All assessments were blind to treatment assignment and completed at baseline and at the end of week 1, 2, 4, 8 and 12. Routine laboratory tests, including CBC and biochemistry were checked at baseline and the end of week 12.
(2) Young Mania Rating Scale (YMRS) and 17-item Hamilton Depression Rating Scale (HDRS)
Those clinically suspected of having a mood disorder were invited to be interviewed with the Chinese version SADS-L and diagnosed as having BP-II. The severity of current symptoms was assessed by using the YMRS and HDRS. The diagnosis of a mood disorder was made according to DSM-IV criteria, except for BP-II, for which we used a 2-day instead of a 4-day duration for hypomania.
as §2
as §3, with “group.” for “group. The interaction term of treatment received X treatment duration was regarded as effect of add-on DM30, MM5, and DM30+MM5. To analyze correlations between cytokines, BDNF and metabolic profiles, GEE analysis was used as well.”

[4] = system: opioid addictive behavior; details: rat, 0.2 mg/kg (1/100 dosage); cited from earlier work
TNF-α = assay: Plasma TNF-α by ELISA in 12-week add-on trial; assay type: in vivo, human; details: for Within group change (baseline minus endpoint) TNF-α, Mean ± SD: BP-II patients, plasma, add-on to valproic acid, 12-week follow-up; for TNF-α, difference versus placebo, B (standardized coefficient): GEE interaction term, placebo as reference, controlling for age, gender, treatment duration, HDRS and YMRS
Description: as §1
Serum levels of DM, memantine, plasma BDNF, and cytokines were measured. […] Plasma BDNF, CRP, TNF-α, were measured at baseline, 1, 2, 4, 8 and 12 weeks and quantified using the enzyme-linked immunosorbent assays (ELISAs). Cytokine levels were quantified using an antibody pair assay system (Flexia; BioSource Intl., Camarillo, Calif.). […]
Symptom severity, immunological parameters (plasma tumor necrosis factor α (TNF-α) and C-reactive protein (CRP)) and plasma brain derived neurotrophic factor (BDNF) were examined regularly. Metabolic profiles (cholesterol, triglyceride, HbA1C, fasting serum glucose, body mass index [BMI]) were measured at baseline and 2, 8, and 12 weeks. […]
(§4) The overall within-group changes of each outcome over the 12 weeks were analyzed by paired sample t-test. […]

BDNF = assay: Plasma BDNF by ELISA in 12-week add-on trial; assay type: in vivo, human; details: for Within group change (baseline minus endpoint) BDNF, Mean ± SD: BP-II patients, plasma, add-on to valproic acid, 12-week follow-up; for BDNF, difference versus placebo, B (standardized coefficient): GEE interaction term, placebo as reference, controlling for age, gender, treatment duration, HDRS and YMRS
Description: as §1
Serum levels of DM, memantine, plasma BDNF, and cytokines were measured. […] of whole blood was drawn and collected from the antecubital vein. Plasma were isolated from the whole blood after the 3000 g centrifugation at 4° C. for 15 min and stored at −80° C. immediately. Plasma BDNF, CRP, TNF-α, were measured at baseline, 1, 2, 4, 8 and 12 weeks and quantified using the enzyme-linked immunosorbent assays (ELISAs). Cytokine levels were quantified using an antibody pair assay system (Flexia; BioSource Intl., Camarillo, Calif.). Sample processing and data analysis were done according to the manufacturer's instructions. The low limit sensitivity was 0.126 pg/ml, 0.057 pg/ml, and 20 pg/ml for TNF-α, IL-1β, and BDNF respectively. Finally, HPLC with UV detector and therapeutic drug monitoring (TDM) was used to measure the plasma DM and VPA level respectively.
Symptom severity, immunological parameters (plasma tumor necrosis factor α (TNF-α) and C-reactive protein (CRP)) and plasma brain derived neurotrophic factor (BDNF) were examined regularly. Metabolic profiles (cholesterol, triglyceride, HbA1C, fasting serum glucose, body mass index [BMI]) were measured at baseline and 2, 8, and 12 weeks. Concomitant benzodiazepine medication (lorazepam <8 mg) was used for nighttime sedation, and to treat agitation and insomnia during the study. […]
as §4

CRP = assay: Plasma CRP by ELISA in 12-week add-on trial; assay type: in vivo, human; details: for Within group change (baseline minus endpoint) CRP, Mean ± SD: BP-II patients, plasma, add-on to valproic acid, 12-week follow-up; for CRP, difference versus placebo, B (standardized coefficient): GEE interaction term, placebo as reference, controlling for age, gender, treatment duration, HDRS and YMRS
[5] = cited from earlier work
[6] = Example 2: 4-week clinical trial of dextromethorphan added on to depakine, cholesterol and LDL; assay type: in vivo, human; details: 30 mg/day added on to depakine
Method: This example was a clinical trial for the treatment of bipolar II disorder using 30 mg/day of dextromethorphan (off label use) adding on to depakine (plasma level […]). 44 patients with bipolar II disorder were recruited, and change of cholesterol was monitored only over 4 weeks.

| SMILES | Within group change (baseline minus endpoint) Glucose, Mean ± SD [1] | Within group change (baseline minus endpoint) HDL-C, Mean ± SD [1] | Within group change (baseline minus endpoint) LDL-C, Mean ± SD [1] | Within group change (baseline minus endpoint) Total cholesterol, Mean ± SD [1] | Within group change (baseline minus endpoint) Triglyceride, Mean ± SD [1] | Glucose, difference versus placebo, B (standardized coefficient) [1] | HDL-C, difference versus placebo, B (standardized coefficient) [1] | LDL-C, difference versus placebo, B (standardized coefficient) [1] | Total Cholesterol, difference versus placebo, B (standardized coefficient) [1] | Triglyceride, difference versus placebo, B (standardized coefficient) [1] | Within group change (baseline minus endpoint) HDRS, Mean ± SD (BP-II patients [3]) | Within group change (baseline minus endpoint) YMRS, Mean ± SD (BP-II patients [3]) | HDRS, difference versus placebo, B (standardized coefficient) (BP-II patients [3]) | YMRS, difference versus placebo, B (standardized coefficient) (BP-II patients [3]) | Within group change (baseline minus endpoint) TNF-α, Mean ± SD (TNF-α) | TNF-α, difference versus placebo, B (standardized coefficient) (TNF-α) | Within group change (baseline minus endpoint) BDNF, Mean ± SD (BDNF) | BDNF, difference versus placebo, B (standardized coefficient) (BDNF) | Within group change (baseline minus endpoint) CRP, Mean ± SD (CRP) | CRP, difference versus placebo, B (standardized coefficient) (CRP) | other results |
| --- | --- | --- | --- | --- | --- | --- | --- | --- | --- | --- | --- | --- | --- | --- | --- | --- | --- | --- | --- | --- | --- |
| CC12CC3CC(C)(C1)CC(N)(C3)C2 [MM5, memantine] | -3.3 ± 22.6 mg/dL | 2.4 ± 8.7 mg/dL | 2.6 ± 22.0 mg/dL | 0.5 ± 24.5 mg/dL | -10.7 ± 38.7 mg/dL | 7.63 | −0.07 | 4.45 | 3.14 | 8.81 | 6.3 ± 4.9 | 4.6 ± 3.9 | −1.33 | −0.98 | 0.3 ± 1.8 pg/mL | −0.15 | 0.3 ± 7.6 ng/mL | 0.02 | -12.6 ± 1269.4 ng/mL | 0.09 | patients discontinuing with poor tolerance to a side effect (dizziness) (BP-II patients [2]): One; opioid addictive behavior by conditioned place preference, in words [4]: effective |
| COc1ccc2c(c1)[C@]13CCCC[C@@H]1[C@H](C2)N(C)CC3 [DM30, dextromethorphan] | 9.0 ± 38.1 mg/dL | 1.6 ± 10.2 mg/dL | -0.9 ± 23.1 mg/dL | -0.1 ± 28.7 mg/dL | -11.6 ± 168.4 mg/dL | −5.33 | 0.79 | 8.80 | 6.95 | 28.08 | 6.4 ± 4.7 | 4.7 ± 3.4 | −1.38 | −1.00 | 0.1 ± 2.5 pg/mL | −0.04 | -2.3 ± 8.3 ng/mL | 2.94 | 10.9 ± 1290.3 ng/mL | 0.05 | plasma levels of DM ([5]; BP patients, U.S. Pat. No. 8,785,472): 5 to 100 ng/mL; plasma DM concentrations ([5]; patients taking 30-60 mg/70 kg of DM, listed as DM): 10-30 ng/ml and 28-84 nM; BDNF level, within group change, in words (BDNF; after 12 weeks of treatment): Significant improved; cholesterol and LDL in human, in words ([6]; 4 weeks): decreased; low density lipid protein (LDL), first value (before treatment) ([6]; 44 bipolar II patients): 127.70 ± 34.24 mg/dL; total cholesterol, first value (before treatment) ([6]; 44 bipolar II patients): 194.70 ± 39.49 mg/dL; total cholesterol over 4-week of treatment, second value ([6]; 44 bipolar II patients, P=0.09): 186.16 ± 37.95 mg/dL; low density lipid protein (LDL) over 4-week of treatment, second value ([6]; 44 bipolar II patients, P=0.13): 120.84 ± 34.013 mg/dL |
